Measurements published in patent US20230181751A1, “FORMULATION OF PURE DIMETHOXY CURCUMIN-HUMAN SERUM ALBUMIN AND A PROCESS FOR THE PREPARATION THEREOF” (SREE CHITRA TIRUNAL INSTITUTE FOR MEDICAL SCIENCES AND …, priority 2020, published 2023).
≈ marks a conversion by molar mass, not a printed value. Where two headings read alike, the source gives them in different places.

Legend:
solubility = format: physicochemical; settings: water, before conjugation
[1] = storage stability of DMCHSA solution (UV and FTIR spectra); format: physicochemical
Protocol: The liquid stability of the product was analysed at 24 h interval for 48 h or 72 h. The UV spectra recorded at different storage period are shown
FTIR spectra are shown to substantiate the chemical degradation after 48 h of storage of DMCHSA solution.
The lyophilized samples were used for respective periods as prepared for liquid stability, were lyophilized and recorded FTIR spectrum.
Thus, liquid stability of DMCHSA stored for […] is evident.

[2] = cited from earlier work
[3] = cited from earlier work; remark: listed apart in the source
[4] = test system: Fibroblast cell line (L929); experiment: MTT cytotoxicity assay, DMCHSA versus free DMC; format: cell-based, mouse; settings: similar molar concentrations, 24 h-48 h
Protocol: Cancer cell lines (A549,MCF-7), Fibroblast cell line (L929), and primary cells (ECs and CCs) were cultured in 96-well plates containing 100 µl medium, kept this plate in CO2 incubator (5% CO2) at 37° C. for 24 h. DMCHSA solution was freshly prepared by dissolving the lyophilized conjugate in DMEM F12 medium and added (0.05 mg/ml, 0.1 mg/ml, 0.2 mg/ml, 0.4 mg/ml) in 96 well plate for 24 h. […] In all cultures standard MTT assay quantified viable cells after treating with DMCHSA/free DMC. Briefly, commercial MTT (0.5 mg/ml) reagent was dissolved in medium. This solution was filtered through a 0.22 µm filter and stored at 2 - 8° C. After removal of 100 µl medium, MTT dye solution was added and the plates were incubated at 37° C. for 4 h in a humidified 5% CO2 incubator, followed by 100 µl of DMSO added to each well, and mixed thoroughly to dissolve the dye crystals.
The absorbance was measured using an ELISA plate reader at 570 nm. High optical density readings corresponded to a high intensity of dye colour. The fractional absorbance was calculated by the formula: % Cell survival/PR = Mean absorbance in test × 100 Mean absorbance in control

solubility (solubility): 20 µM (≈ 7.37 µg/mL)
UV-Vis spectral stability [1]: degrading free curcumin in 2h
Compound: COc1cc(/C=C/C(=O)CC(=O)/C=C/c2ccc(O)c(OC)c2)ccc1O [DMC, (1E,6E)-1,7-bis(4-hydroxy-3-methoxyphenyl)hepta-1,6-dienne-3,5-dione]
half-life of DMC ([2]; in the presence of protein): 1 to 2 h
half-life of DMC ([2]; physiological pH, without protein): a few minutes
solubility in acetone, DMSO and ethyl ether [3]: very soluble
solubility in ethyl alcohol, glacial acetic acid and propylene glycol [3]: soluble
solubility in water, petroleum ether and benzene [3]: poorly soluble
cytotoxicity on fibroblasts, DMCHSA compared with free DMC [4]: less cytotoxic
